{"source": "patent US9126993B2", "about": "“Glucosylceramide synthase inhibitors” (GENZYME CORPORATION, priority 2011, dated 2015)", "key": {"[1]": {"system": "K14 mice", "assay": "Survival of K14 mice", "assay_type": "in vivo, mouse", "conditions": "GZ 161 5 mg/kg IP daily from P4, combination: plus ICV rhGC at P1, 2, 3", "experimental": "(§1) To determine if further benefits could be achieved by prenatal exposure to GZ 161, a subset of pregnant K14 females received GZ 161 in food using a formulation calculated to provide 20 mg/kg/day during the final 5-7 days of gestation. Females receiving GZ 161 were switched to standard diet after delivery and the pups received daily IP injections of GZ 161 at a dose of 5 mg/kg (10 μl per gram of body weight) starting at P 1. A set of WT pups born to females receiving the drug or standard formula was sacrificed immediately after birth to determine whether in utero exposure to GZ 161 could reduce brain GSL levels.\nAn animal model of neuropathic Gaucher disease (nGD) identified as K14 were cryoanesthesized and received 2 μl bilateral intracerebroventricular (ICV) injections of either rhGC at 2 mg/ml or vehicle as previously described. (Cabrera-Salazar et al. (2010)) The injected pups were monitored for recovery and returned to the mother following the procedure.\nK14 mice received daily intraperitoneal injections of GZ 161 at a dose of 5 mg/kg of body weight as described above. A separate cohort of animals also received ICV injections of GC at postnatal days 1, 2 and 3 followed by daily IP injections of GZ 161. […] All animals were monitored daily for the development of neurological complications. […] This time point was recorded as end of life and analyzed using Kaplan-Meier plots. […]"}, "[2]": {"system": "WT mice", "assay": "In utero exposure: brain GluCer in newborn WT mice", "assay_type": "in vivo, mouse", "experimental": "as §1\nQuantitative sphingolipid analysis was performed by liquid chromatography and tandem mass spectrometry (LC/MS/MS) as previously described in Merrill et al., Methods 36: 207-224 (2005). Briefly, 10 μl of brain tissue homogenate (tissue weight/water:100 mg/ml) was extracted with 1.00 ml of an organic solvent mixture (97% acetonitrile, 2% methanol, and 1% acetic acid, v/v) and vortexed vigorously for 10 min. Extracted sphingolipids (GluCer and GluSph) were directly separated by hydrophilic liquid chromatography (Atlantis HILIC column, Waters Corp.) and analyzed by triple quadrupole tandem mass spectrometry (API 4000, Applied Biosystems/MDS SCIEX) and compared with sphingolipid standards (Matreya, LLC; Pleasant Gap, Pa.)\nValues shown correspond to means and error bars represent standard error of the mean. Comparisons between groups were analyzed by a one-way analysis of variance followed by Tukey's multiple comparison test. Comparison of substrate reduction in utero was analyzed by the unpaired t test with Welch's correction. Kaplan-Meier survival curves were analyzed using the log-rank test equivalent to the Mantel-Haenszel test. All statistical analyses were performed using GraphPad Prism v4.0 (GraphPad Software, San Diego, Calif.). Differences between group means with p<0.05 were considered significant."}}, "data": [{"compound": "CC(C)(NC(=O)OC1CN2CCC1CC2)c1cccc(-c2ccc(F)cc2)c1", "note": "(stereo not shown) [GZ 161, Quinuclidin-3-yl(2-(4′-fluoro-[1,1′-biphenyl]-3-yl)propan-2-yl)carbamate]", "values": [{"measurement": "median lifespan", "setting": "[1]", "result": 18, "unit": "days"}, {"measurement": "decrease in GluCer levels in the newborn mouse brain (P0)", "setting": "[2]; WT dams treated, 20 mg/kg/day in food", "result": "~5", "unit": "fold"}, {"measurement": "crossing the blood/placental barrier", "setting": "[2]; inferred from reduced GluCer in newborn brain after dosing pregnant WT mice", "result": "appears to cross the blood/placental barrier"}, {"measurement": "GluCer load in whole brain homogenates at birth (P0)", "setting": "[2]; pregnant WT mice, 20 mg/kg/day in food", "result": "reduces the GluCer load"}]}]}
